This is an account of results in patent US4689326A, “Process for controlling hyperlipidemia” (Research Corporation, priority 1985, dated 1987).

Experiment [1] deals with T1, Hepatic Lipoprotein Lipase (Mus musculus, UniProt P27656).
T1 construct: 10% homogenates of CF1 male mouse liver; from tissue; host or cells: CF1 male mouse liver, 10% homogenate
T1 sequence (P27656 22-510): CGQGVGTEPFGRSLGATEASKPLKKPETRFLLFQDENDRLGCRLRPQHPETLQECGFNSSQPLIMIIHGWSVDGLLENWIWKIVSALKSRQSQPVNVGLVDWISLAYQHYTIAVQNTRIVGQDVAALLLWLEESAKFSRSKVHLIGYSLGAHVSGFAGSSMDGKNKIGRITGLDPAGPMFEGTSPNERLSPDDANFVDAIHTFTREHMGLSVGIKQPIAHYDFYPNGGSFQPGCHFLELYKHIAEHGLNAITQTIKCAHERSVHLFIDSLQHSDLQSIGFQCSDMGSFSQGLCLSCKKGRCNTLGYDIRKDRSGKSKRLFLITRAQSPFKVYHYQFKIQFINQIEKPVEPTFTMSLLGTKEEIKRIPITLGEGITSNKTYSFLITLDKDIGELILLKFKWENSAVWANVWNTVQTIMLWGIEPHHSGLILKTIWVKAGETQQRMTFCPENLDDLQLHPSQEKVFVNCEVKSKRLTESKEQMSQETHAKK
Kind of experiment: In vitro enzyme activity, liver homogenate: hepatic lipoprotein lipase. The format is biochemical, CF1 male mouse. The following applies: ± SD, N = 6, read-out: Percent Control, in vitro enzyme activity. How it is done: (§1) In vitro enzymatic studies were undertaken using 10% homogenates of CF1 male mouse liver with […] of compound 3,4,5,6-dibenzohomopiperidine. In addition, in vivo enzymatic studies were performed, again using 10% liver homogenates (prepared in 0.25 M sucrose plus 0.001 M (ethylenedinitrilo)-tetraacetic acid, ph 7.25 from CF1 male mice obtained after administering 3,4,5,6-dibenzohomopiperidine for 16 days at a concentration ranging from 10 to 60 mg/kg/day, intraperitoneally.
(§2) The following enzyme activities were determined by following standard literature procedures: acetyl coenzyme synthetase; adenosine triphosphate dependent citrate lyase; mitochondrial citrate exchange; cholesterol/7 hydroxylase; 3-hydroxy-3-methyl-glutaryl coenzyme A reductase; acetyl coenzyme A carboxylase activity; fatty acid synthetase activity; sn-glycerol-3-phosphate acyl transferase activity; phosphatidate phosphohydrolase activity; cholesterol acyl transferase; and heparin activated hepatic lypoprotein lipase. Protein was determined for all enzyme assays by the Lowry et al. technique (J. Biol. Chem, 193, 265 (1951)).

The target of experiment [2] is T2, Acetyl CoA Synthetase (Mus musculus, UniProt Q9QXG4).
T2 construct: 10% homogenates of CF1 male mouse liver; from tissue; host or cells: CF1 male mouse liver, 10% homogenate
T2 sequence (Q9QXG4 whole entry): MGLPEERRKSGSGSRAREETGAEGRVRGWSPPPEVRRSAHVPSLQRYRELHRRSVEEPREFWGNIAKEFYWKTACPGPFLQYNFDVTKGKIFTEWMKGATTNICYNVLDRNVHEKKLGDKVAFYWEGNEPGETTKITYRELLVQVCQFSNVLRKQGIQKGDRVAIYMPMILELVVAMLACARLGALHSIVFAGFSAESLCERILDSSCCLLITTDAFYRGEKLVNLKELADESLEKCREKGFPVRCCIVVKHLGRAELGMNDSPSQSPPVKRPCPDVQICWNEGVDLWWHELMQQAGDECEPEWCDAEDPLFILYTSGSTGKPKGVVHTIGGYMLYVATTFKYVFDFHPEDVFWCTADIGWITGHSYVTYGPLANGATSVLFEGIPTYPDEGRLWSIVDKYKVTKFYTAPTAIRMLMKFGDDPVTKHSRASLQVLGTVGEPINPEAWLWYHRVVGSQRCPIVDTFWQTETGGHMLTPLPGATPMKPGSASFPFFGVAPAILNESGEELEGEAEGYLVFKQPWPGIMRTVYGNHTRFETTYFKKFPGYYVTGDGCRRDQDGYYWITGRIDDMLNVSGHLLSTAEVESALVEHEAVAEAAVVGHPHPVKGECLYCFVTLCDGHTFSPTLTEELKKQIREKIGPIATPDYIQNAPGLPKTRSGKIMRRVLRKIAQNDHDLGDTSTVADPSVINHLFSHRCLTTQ
Kind of experiment: In vitro enzyme activity, liver homogenate: acetyl CoA synthetase. It is filed as biochemical, CF1 male mouse. The following applies: ± SD, N = 6, read-out: Percent Control, in vitro enzyme activity. How it is done:
as §1, §2

Experiment [3] has as its target T3, ATP Dependent Citrate Lyase (Mus musculus, UniProt Q91V92).
T3 construct: 10% homogenates of CF1 male mouse liver; from tissue; host or cells: CF1 male mouse liver, 10% homogenate
T3 sequence (Q91V92 1-1091): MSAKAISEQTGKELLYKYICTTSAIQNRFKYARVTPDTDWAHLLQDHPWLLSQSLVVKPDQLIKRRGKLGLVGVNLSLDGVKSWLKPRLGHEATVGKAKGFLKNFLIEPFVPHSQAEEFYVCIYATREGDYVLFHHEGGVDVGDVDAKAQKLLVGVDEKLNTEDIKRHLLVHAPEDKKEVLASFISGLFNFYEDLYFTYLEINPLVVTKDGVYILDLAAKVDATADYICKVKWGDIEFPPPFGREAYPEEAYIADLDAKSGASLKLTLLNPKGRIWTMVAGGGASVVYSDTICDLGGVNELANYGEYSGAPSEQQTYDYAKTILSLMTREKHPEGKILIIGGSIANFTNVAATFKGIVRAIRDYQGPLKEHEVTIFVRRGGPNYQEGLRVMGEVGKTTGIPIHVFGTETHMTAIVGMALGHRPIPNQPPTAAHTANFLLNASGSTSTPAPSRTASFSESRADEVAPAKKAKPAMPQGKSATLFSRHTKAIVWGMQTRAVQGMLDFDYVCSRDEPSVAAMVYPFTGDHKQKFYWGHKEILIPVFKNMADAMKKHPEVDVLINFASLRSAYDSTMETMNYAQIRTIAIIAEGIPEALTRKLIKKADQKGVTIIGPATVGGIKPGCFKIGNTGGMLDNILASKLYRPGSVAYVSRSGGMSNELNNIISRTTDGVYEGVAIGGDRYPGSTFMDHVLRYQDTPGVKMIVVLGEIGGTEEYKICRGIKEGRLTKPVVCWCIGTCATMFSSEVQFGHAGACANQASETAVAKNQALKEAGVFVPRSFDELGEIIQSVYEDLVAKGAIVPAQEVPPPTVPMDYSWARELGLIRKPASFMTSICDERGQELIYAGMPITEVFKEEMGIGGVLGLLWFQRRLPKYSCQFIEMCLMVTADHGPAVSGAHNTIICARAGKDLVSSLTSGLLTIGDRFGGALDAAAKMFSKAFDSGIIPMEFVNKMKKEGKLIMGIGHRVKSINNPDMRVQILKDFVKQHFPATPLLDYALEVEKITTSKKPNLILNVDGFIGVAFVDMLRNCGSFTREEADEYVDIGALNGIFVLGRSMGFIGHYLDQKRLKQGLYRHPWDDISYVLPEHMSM
Put plainly: In vitro enzyme activity, liver homogenate: ATP dependent citrate lyase. To be noted: ± SD, N = 6, read-out: Percent Control, in vitro enzyme activity. The format is biochemical, CF1 male mouse. How it is done:
as §1, §2

The test system of experiment [4] is ATP Dependent Citrate Lyase. Put plainly: In vivo enzyme activity, liver of treated mice: ATP dependent citrate lyase. The arrangement: species or system CF1 male mice. To be noted: 16 days, ± SD. How it is done: as §1, §2

Consider `c1ccc2c(c1)CNCc1ccccc1-2` [Compound 3, 3,4,5,6-dibenzohomopiperidine], for which the remaining activity at 50 µM amounted to 90 ± 7% in experiment [1] (50 μM), 112 ± 6% in experiment [2] (50 μM) and 87 ± 5% in experiment [3] (50 μM). Moreover, the remaining activity at 100 µM in experiment [1] (100 μM) came to 89 ± 6%; in experiment [2] (100 μM), 100 ± 7%; in experiment [3] (100 μM), 38 ± 3%. Moreover, the remaining activity at 200 µM in experiment [1] (200 μM) was determined as 72 ± 5%; in experiment [2] (200 μM), 101 ± 6%; in experiment [3] (200 μM) it was 33 ± 4%. Further, the “Percent Control, in vivo enzyme activity” value in experiment [4] (10 mg/kg/day ip) came to 73 ± 6%; in experiment [4] (20 mg/kg/day ip) it was 63 ± 4%; in experiment [4] (40 mg/kg/day ip), 62 ± 3%; in experiment [4] (60 mg/kg/day ip), 65 ± 5%.
